The compounds below were run against USP30 (Homo sapiens (Human), UniProt Q70CQ3) (assay: USP30 biochemical IC50 assay). Details: fluorescence polarisation, TAMRA labelled peptide linked to ubiquitin substrate; enzyme and compound incubated 30 min at room temp; read after 2 h; read-out: IC50 range.
Protocol: USP30 Biochemical IC50 Assay
Dilution plates were prepared at 21 times the final concentration (2100 μM for a final concentration of 100 μM) in 50% DMSO in a 96-well polypropylene V-bottom plate (Greiner #651201). A typical 8-point dilution series would be 100, 30, 10, 3, 1, 0.3, 0.1, 0.03 μM final. Reactions were performed in duplicate in black 384 well plates (small volume, Greiner 784076) in a final reaction volume of 21 μl. Either 1 μl of 50% DMSO or diluted compound was added to the plate. USP30 was diluted in reaction buffer (40 mM Tris, pH 7.5, 0.005% Tween 20, 0.5 mg/ml BSA, 5 mM beta-mercaptoethanol) to the equivalent of 0.05 μl/well and 10 μl of diluted USP30 was added to the compound. Enzyme and compound were incubated for 30 min at room temp. Reactions were initiated by the addition of 50 nM of TAMRA labelled peptide linked to ubiquitin via an iso-peptide bond as fluorescence polarisation substrate. Reactions were read immediately after addition of substrate and following a 2 h incubation at room temperature. Readings were performed on a Pherastar Plus (BMG Labtech). A Excitation 540 nm; A Emission 590 nm.

Sequence of USP30 (Q70CQ3 57-517): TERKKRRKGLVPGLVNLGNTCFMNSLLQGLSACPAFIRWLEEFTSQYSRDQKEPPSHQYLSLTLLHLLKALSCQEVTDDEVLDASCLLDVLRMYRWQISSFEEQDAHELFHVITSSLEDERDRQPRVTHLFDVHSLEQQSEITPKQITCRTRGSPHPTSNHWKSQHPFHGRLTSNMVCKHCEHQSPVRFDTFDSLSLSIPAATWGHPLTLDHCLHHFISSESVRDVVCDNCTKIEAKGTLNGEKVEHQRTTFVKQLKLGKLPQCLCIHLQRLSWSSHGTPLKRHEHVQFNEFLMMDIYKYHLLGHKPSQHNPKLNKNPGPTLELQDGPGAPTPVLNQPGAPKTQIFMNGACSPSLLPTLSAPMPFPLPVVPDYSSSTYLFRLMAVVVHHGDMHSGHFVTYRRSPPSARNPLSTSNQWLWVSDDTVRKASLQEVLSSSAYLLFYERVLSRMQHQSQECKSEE

Row | IC50 [nM] | SMILES
1 | 1000 to 10000 | N#CN1CCC(=CC(=O)NCc2cc(C(F)(F)F)ccc2F)C1 [Example 31, 2-(1-Cyanopyrrolidin-3-ylidene)-N-(2-fluoro-5-(trifluoromethyl)benzyl)acetamide]
2 | 10 to 100 | C[C@@H](C(=O)Nc1cc(-c2cccc(Cl)c2)no1)[C@@H]1CCN(C#N)C1 [Example 53, (R)-N-(3-(3-chlorophenyl)isoxazol-5-yl)-2-((S)-1-cyanopyrrolidin-3-yl)propanamide]
3 | 10 to 100 | COc1ccc(C2CN(C(=O)C[C@@H]3CCN(C#N)C3)C2)cc1-c1ccnn1C [Example 40, (S)-3-(2-(3-(4-Methoxy-3-(1-methyl-1H-pyrazol-5-yl)phenyl)azetidin-1-yl)-2-oxoethyl)-pyrrolidine-1-carbonitrile]
4 | 100 to 1000 | CN(Cc1cc(-c2ccccc2)[nH]n1)C(=O)C=C1CCN(C#N)C1 [Example 30, 2-(1-Cyanopyrrolidin-3-ylidene)-N-methyl-N-((5-phenyl-1H-pyrazol-3-yl)methyl)acetamide]
5 | 1 to 10 | N#CN1CC[C@H](CC(=O)Nc2cc(-c3cccc(OC(F)(F)F)c3)no2)C1 [Example 54, (R)-2-(1-cyanopyrrolidin-3-yl)-N-(3-(3-(trifluoromethoxy)phenyl)isoxazol-5-yl)acetamide]
6 | 100 to 1000 | N#Cc1ccc(C2CN(C(=O)C[C@@H]3CCN(C#N)C3)C2)cc1 [Example 52, (S)-3-(2-(3-(4-cyanophenyl)azetidin-1-yl)-2-oxoethyl)pyrrolidine-1-carbonitrile]
7 | 100 to 1000 | N#CN1CCC(=CC(=O)Nc2ccc(Cl)c(C(F)(F)F)c2)C1 [Example 20, N-(4-Chloro-3-(trifluoromethyl)phenyl)-2-(1-cyanopyrrolidin-3-ylidene)acetamide]
8 | 100 to 1000 | N#Cc1ccc(C2CN(C(=O)C[C@@H]3CCN(C#N)C3)C2)nc1 [Example 57, (S)-6-(1-(2-(1-cyanopyrrolidin-3-yl)acetyl)azetidin-3-yl)nicotinonitrile]
9 | 1000 to 10000 | N#CN1CCC(CC(=O)Nc2cc3ccccn3n2)C1 (stereo not drawn) [Example 44, 2-(1-cyanopyrrolidin-3-yl)-N-(pyrazolo[1,5-a]pyridin-2-yl)acetamide]
10 | 100 to 1000 | N#CN1CCC(=CC(=O)N2CC(c3ccccc3)C2)C1 [Example 18, 3-(2-Oxo-2-(3-phenylazetidin-1-yl)ethylidene)pyrrolidine-1-carbonitrile]
11 | 100 to 1000 | COc1ccc2nc(NC(=O)CC3CCN(C#N)C3)sc2c1 (stereo not drawn) [Example 3, 2-(1-Cyanopyrrolidin-3-yl)-N-(6-methoxybenzo[d]thiazol-2-yl)acetamide]
12 | 100 to 1000 | CC(C(=O)N1CC(c2ccc(C#N)cc2)C1)[C@@H]1CCN(C#N)C1 (single isomer, unassigned) [Example 62]
13 | 100 to 1000 | N#CN1CCC(CC(=O)Nc2ccc(Cl)c(Cl)c2)C1 (stereo not drawn) [Example 9, 2-(1-Cyanopyrrolidin-3-yl)-N-(3,4-dichlorophenyl)acetamide]
14 | 100 to 1000 | CN(Cc1cc(-c2ccccc2)no1)C(=O)C=C1CCN(C#N)C1 [Example 27, 2-(1-Cyanopyrrolidin-3-ylidene)-N-methyl-N-((3-phenylisoxazol-5-yl)methyl)acetamide]
15 | 100 to 1000 | COc1cccc(C2CN(C(=O)CC3CCN(C#N)C3)C2)c1 (stereo not drawn) [Example 13, 3-(2-(3-(3-Methoxyphenyl)azetidin-1-yl)-2-oxoethyl)pyrrolidine-1-carbonitrile]
16 | 10 to 100 | N#CN1CCC(=CC(=O)Nc2ccc(Oc3ccccc3)cc2)C1 [Example 22, 2-(1-Cyanopyrrolidin-3-ylidene)-N-(4-phenoxyphenyl)acetamide]
17 | 100 to 1000 | N#CN1CC[C@@H](CC(=O)Nc2nnc(-c3cccc(Cl)c3)o2)C1 [Example 48, (S)-N-(5-(3-chlorophenyl)-1,3,4-oxadiazol-2-yl)-2-(1-cyanopyrrolidin-3-yl)acetamide]
18 | 1000 to 10000 | CC(C(=O)N1CC(c2ccc(C#N)cc2)C1)[C@@H]1CCN(C#N)C1 (single isomer, unassigned) [Example 61]

Source: patent US11014912B2, “Cyanopyrrolidine derivatives with activity as inhibitors of USP30” (MISSION THERAPEUTICS LIMITED, priority 2016, dated 2021)
